Measured values taken from paper PMC5385157 (Neuropharmacology, 2016).
“And” between values parts separate entries of the source, which are not always exact repeats. Equal entries are not always repeated. Where two headings read alike, the source gives them in different places.

Assays:
[1] = system: α2AAR-mediated activation of the ERK1/2 MAP kinase pathway; assay: Western blot for phospho-ERK1/2 in WT MEF cells; type: cell-based, murine; details: 1 µM
HA-α2AAR [2] = biological target: T1, HA-α2AAR (Mus musculus, UniProt Q01338); details: 1 µM, 30 min
T1 sequence (Q01338 1-465): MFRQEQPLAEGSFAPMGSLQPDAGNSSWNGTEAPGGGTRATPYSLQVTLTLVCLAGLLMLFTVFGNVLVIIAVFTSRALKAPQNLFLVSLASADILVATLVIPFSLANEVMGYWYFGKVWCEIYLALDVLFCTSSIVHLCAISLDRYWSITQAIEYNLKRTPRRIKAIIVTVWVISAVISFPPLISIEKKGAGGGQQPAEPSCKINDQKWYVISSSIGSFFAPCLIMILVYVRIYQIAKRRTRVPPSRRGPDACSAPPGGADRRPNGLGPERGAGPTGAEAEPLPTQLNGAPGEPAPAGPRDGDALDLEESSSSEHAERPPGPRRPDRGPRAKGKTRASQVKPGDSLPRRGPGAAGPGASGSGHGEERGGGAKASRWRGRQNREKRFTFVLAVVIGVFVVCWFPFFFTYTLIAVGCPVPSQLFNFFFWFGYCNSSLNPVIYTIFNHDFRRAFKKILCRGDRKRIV

α2AAR/Arr3 interaction = α2AAR/Arr3 interaction (Mus musculus, UniProt Q01338); details: 1 µM, live HEK 293 cells
α2AAR/Arr3 interaction, sequence (P32121 whole entry partner, one chain of several): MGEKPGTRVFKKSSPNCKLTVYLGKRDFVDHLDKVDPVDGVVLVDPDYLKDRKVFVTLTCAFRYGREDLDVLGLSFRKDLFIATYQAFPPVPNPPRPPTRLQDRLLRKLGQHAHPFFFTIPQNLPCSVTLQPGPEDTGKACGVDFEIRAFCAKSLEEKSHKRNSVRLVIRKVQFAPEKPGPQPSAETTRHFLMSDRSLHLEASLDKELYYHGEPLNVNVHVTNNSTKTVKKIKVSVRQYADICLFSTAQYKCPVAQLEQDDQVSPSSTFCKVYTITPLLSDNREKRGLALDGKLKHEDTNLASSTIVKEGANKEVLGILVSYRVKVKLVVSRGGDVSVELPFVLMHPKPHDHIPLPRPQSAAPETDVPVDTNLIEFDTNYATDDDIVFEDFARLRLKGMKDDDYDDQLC

[3] = clinical blood plasma level; ref Baldessarini and Tarazi (2006); cited from earlier work
human α2AAR = details: ref NIMH Psychoactive Drug Screening Program (PDSP) Ki Database, cited from earlier work
HA-α2AAR [4] = biological target: T1, HA-α2AAR; details: 1 µM
α2AAR = biological target: T2, α2AAR (Mus musculus, UniProt Q01338); assay: cAMP assay; type: cell-based, murine; details: ligand 10 µM, 10 µM forskolin, 20 min
T2 sequence (Q01338 1-465): T1 sequence (Q01338 1-465)

CN1CCN(C2=Nc3cc(Cl)ccc3Nc3ccccc32)CC1 [Clozapine, clozapine]
ERK1/2 activation (pERK1/2) [1]: unable to detect any ERK1/2 activation

CN(C)CCCN1c2ccccc2Sc2ccc(Cl)cc21 [Chlorpromazine, chlorpromazine]
α2AAR endocytosis (intracellular punctae) (HA-α2AAR [2]): robust α2AAR endocytosis
α2AAR/Arr3 interaction (FLIM-FRET efficiency) (α2AAR/Arr3 interaction): robust α2AAR/Arr3 interaction
Therapeutic range [3]: 90 to 2350 nM
Ki (human α2AAR; read-out: Reported values at human α2AAR, Avg.): 251 nM
Ki (human α2AAR; read-out: Reported values at human α2AAR, Range): 78 to 558 nM
receptor loss from the cell surface (HA-α2AAR [4]; WT MEF cells): ~30%
α2AAR endocytic response in arrestin-null (Arr2,3−/−) MEF cells (HA-α2AAR [4]; 5, 10, 30 min): lost

OCCN1CCN(CCCN2c3ccccc3Sc3ccc(C(F)(F)F)cc32)CC1 [Fluphenazine, fluphenazine]
Therapeutic range [3]: 20–100 ng/ml and 50–230 nM

NC[C@H](O)c1ccc(O)c(O)c1 [NE, norepinephrine]
Gαi-mediated inhibition of cAMP production (α2AAR): ~50%
